Measured values published in patent US20260231992A1, “A PROCESS FOR MYCOTOXIN DETOXIFICATION USING LACTOCOCCUS LACTIS” (priority 2023, published 2026).
In brackets after ≈: the same amount, converted by molar mass. Where two headings read alike, the source gives them in different places.

Legend:
Assay type in all cases: cell-based
[1] = tested on: Staphylococcus aureus NCIM 2079; test: microbe, parasite or virus in culture; conditions: Staphylococcus aureus NCIM 2079, 24 h at 37° C.
[2] = tested on: Bacillus subtilis NCIM 2010; test: microbe, parasite or virus in culture; conditions: Bacillus subtilis NCIM 2010, 24 h at 37° C.
[3] = tested on: Escherichia coli NCIM 2065; test: microbe, parasite or virus in culture; conditions: Escherichia coli NCIM 2065, 24 h at 37° C.
[4] = tested on: Serratia marcescens NCIM 2919; test: microbe, parasite or virus in culture; conditions: Serratia marcescens NCIM 2919, 24 h at 37° C.
[5] = tested on: Pseudomonas desmolyticum NCIM 2112; test: microbe, parasite or virus in culture; conditions: Pseudomonas desmolyticum NCIM 2112, 24 h at 37° C.
[6] = tested on: Mycobacterium smegmatis NCIM 5138; test: microbe, parasite or virus in culture; conditions: Mycolicibacterium smegmatis, NCIM5138; Mycobacterium smegmatis NCIM 5138, 48 h
[7] = tested on: Candida albicans NCIM 3557; test: Antifungal MIC, RPMI-1640, resazurin; conditions: Candida albicans NCIM 3557, 48 to 72 h at 28° C.
[8] = tested on: Fusarium verticillioides BIONCL4; test: Antifungal MIC, RPMI-1640, resazurin; conditions: Fusarium verticillioides BIONCL4, 48 to 72 h at 28° C.
[9] = tested on: Fusarium graminearum MTCC1893; test: microbe, parasite or virus in culture
[10] = tested on: Aspergillus niger BIONCL 12; test: Antifungal MIC, RPMI-1640, resazurin; conditions: Aspergillus niger BIONCL 12, 48 to 72 h at 28° C.
[11] = tested on: Gram-positive and Gram-negative bacteria; test: Antibacterial MIC, whole panel of tested strains; conditions: span over all tested bacterial strains; read-out: MICs against tested bacterial strains
fungal strains tested = test: microbe, parasite or virus in culture; conditions: Fusarium graminearum, read-out: MIC against the fungal strains tested
[12] = NCIM3557, read-out: MIC (converted)
[13] = Fusarium graminearum, MTCC1893, Fusarium graminearum MTCC1893, 48 to 72 h at 28° C.

Structure (SMILES) | MIC ([1]; NCIM2079, read-out: MIC) | MIC ([2]; NCIM2010, read-out: MIC) | MIC ([3]; NCIM2065, read-out: MIC) | MIC ([4]; NCIM2919, read-out: MIC) | MIC ([5]; NCIM2112, read-out: MIC) | MIC [6] | MIC [7, 12] | MIC ([8]; read-out: MIC (converted)) | MIC [9, 13] | MIC [10] | MIC ([10]; BIONCL12, read-out: MIC) | MIC [11] | further results
NC(=O)c1cnccn1 [C-3, Pyrazine-2-carboxamide] | 25 µg/mL (≈ 203 µM) | 25 µg/mL (≈ 203 µM) | 25 µg/mL (≈ 203 µM) | 25 µg/mL (≈ 203 µM) | 25 µg/mL (≈ 203 µM) | 12.5 µg/mL (≈ 102 µM) | 12.5 µg/mL (≈ 102 µM) | 12.5 µg/mL (≈ 102 µM) | 25 µg/mL (≈ 203 µM) | 25.0 µg/mL (≈ 203 µM) | 25 µg/mL (≈ 203 µM) | 1.56 to 25 µg/mL (≈ 12.7 to 203 µM) | MIC [1]: 25.0 µg/mL (≈ 203 µM); MIC [2]: 25.0 µg/mL (≈ 203 µM); MIC [3]: 25.0 µg/mL (≈ 203 µM); MIC [4]: 25.0 µg/mL (≈ 203 µM); MIC [5]: 25.0 µg/mL (≈ 203 µM); MIC [7]: 12.5 µg/mL (≈ 102 µM); MIC [8]: 12.5 µg/mL (≈ 102 µM); MIC ([9]; Fusarium graminearum MTCC1893, 48 to 72 h at 28° C.): 50.0 µg/mL (≈ 406 µM)
CC1=C(O)C(=O)C(O)CO1 (centres unmarked) [C-2, 3,5-dihydroxy-6-methyl-2,3-dihydro-4H-pyran-4-one] | 3.12 µg/mL (≈ 21.6 µM) | 6.25 µg/mL (≈ 43.4 µM) | 6.25 µg/mL (≈ 43.4 µM) | 3.12 µg/mL (≈ 21.6 µM) | 6.25 µg/mL (≈ 43.4 µM) | 12.5 µg/mL (≈ 86.7 µM) | 3.12 µg/mL (≈ 21.6 µM) | 3.12 µg/mL (≈ 21.6 µM) | 6.25 µg/mL (≈ 43.4 µM) |  | 3.12 µg/mL (≈ 21.6 µM) | 1.56 to 25 µg/mL (≈ 10.8 to 173 µM) | MIC (fungal strains tested): 3.12 to 6.25 µg/mL (≈ 21.6 to 43.4 µM)
CC(C)(C)c1ccc(O)c(C(C)(C)C)c1 [C-1, 2,4-di-tert-butylphenol] | 6.25 µg/mL (≈ 30.3 µM) | 3.12 µg/mL (≈ 15.1 µM) | 3.12 µg/mL (≈ 15.1 µM) | 1.56 µg/mL (≈ 7.56 µM) | 6.25 µg/mL (≈ 30.3 µM) | 3.12 µg/mL (≈ 15.1 µM) | 12.5 µg/mL (≈ 60.6 µM) | 6.25 µg/mL (≈ 30.3 µM) | 6.25 µg/mL (≈ 30.3 µM) | 12.50 µg/mL (≈ 60.6 µM) | 12.5 µg/mL (≈ 60.6 µM) | 1.56 to 25 µg/mL (≈ 7.56 to 121 µM) | 
